Assay results as given in PubChem BioAssay AID330 (DTP/NCI, 2004).
Values joined by “and” are separate entries in the source; they are usually repeats but may differ in a detail not shown here. Equal entries are not always repeated. Toxic doses and inconclusive results are not listed. How the source made its calls: active means survival T/C of 150% or more; inactive means T/C below 125% in these data.

Test system: P388 leukemia ip, CD2F1 mice, survival T/C
Test: NCI In Vivo Anticancer Drug Screen. Data for tumor model P388 Leukemia (intraperitoneal) in CD2F1 (CDF1) mice
Conditions: endpoint: median survival time, higher = longer survival
Outline: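 Mice carrying the transplanted tumor received test compound or vehicle. Survival was recorded in each group, and the value is the treated-group measurement divided by that of the vehicle-treated control group.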

[1] = dose: 12.5 mg/kg/injection, schedule: Q01DX009 (ip), vehicle: Klucel (hydroxypropylcellulose) (HPC)
[2] = dose: 25.0 mg/kg/injection, schedule: Q01DX009 (ip), vehicle: Klucel (hydroxypropylcellulose) (HPC)
[3] = dose: 50.0 mg/kg/injection, schedule: Q01DX009 (ip), vehicle: Klucel (hydroxypropylcellulose) (HPC)
[4] = dose: 100.0 mg/kg/injection, schedule: Q01DX009 (ip), vehicle: Klucel (hydroxypropylcellulose) (HPC)
[5] = dose: 200.0 mg/kg/injection, schedule: Q01DX009 (ip), vehicle: Klucel (hydroxypropylcellulose) (HPC)
[6] = dose: 50.0 mg/kg/injection, schedule: Q01DX005 (ip), vehicle: saline with Tween-80
[7] = dose: 100.0 mg/kg/injection, schedule: Q01DX005 (ip), vehicle: saline with Tween-80
[8] = dose: 200.0 mg/kg/injection, schedule: Q01DX005 (ip), vehicle: saline with Tween-80
[9] = dose: 50.0 mg/kg/injection, schedule: Q01DX009 (ip), vehicle: saline
[10] = dose: 100.0 mg/kg/injection, schedule: Q01DX009 (ip), vehicle: saline
[11] = dose: 50.0 mg/kg/injection, schedule: Q01DX005 (ip), vehicle: saline
[12] = dose: 25.0 mg/kg/injection, schedule: Q01DX009 (ip), vehicle: other
[13] = dose: 50.0 mg/kg/injection, schedule: Q01DX009 (ip), vehicle: other
[14] = dose: 100.0 mg/kg/injection, schedule: Q01DX009 (ip), vehicle: other
[15] = dose: 200.0 mg/kg/injection, schedule: Q01DX009 (ip), vehicle: other

Measured: T/C

Cc1ccc(S(=O)(=O)N(C)C2c3ccccc3Oc3ccccc32)cc1
inactive: [1] 106 % of control | [2] 106 % of control | [3] 106 % of control and 87 % of control | [4] 91 % of control | [5] 92 % of control | dose: 400.0 mg/kg/injection, schedule: Q01DX009 (ip), vehicle: Klucel (hydroxypropylcellulose) (HPC) 92 % of control

Cc1ccccc1C(C)C[n+]1cccc(C)c1C (configuration not stated)
inactive: dose: 6.25 mg/kg/injection, schedule: Q01DX005 (ip), vehicle: saline with Tween-80 101 % of control | dose: 12.5 mg/kg/injection, schedule: Q01DX005 (ip), vehicle: saline with Tween-80 101 % of control

O=C1CSC(c2ccc(Cl)c(Cl)c2)N1c1nncs1 (configuration not stated)
inactive: [6] 103 % of control | [7] 93 % of control | [8] 99 % of control

CCSSC12CCCN1C(=O)C(C)N(C)C2=O (configuration not stated)
inactive: [9] 105 % of control | [10] 104 % of control | dose: 200.0 mg/kg/injection, schedule: Q01DX009 (ip), vehicle: saline 111 % of control

CC1=NN(C2=NS(=O)(=O)c3ccccc3N2C)C(=O)C1
inactive: dose: 60.0 mg/kg/injection, schedule: Q01DX005 (ip), vehicle: saline with Tween-80 86 % of control | dose: 120.0 mg/kg/injection, schedule: Q01DX005 (ip), vehicle: saline with Tween-80 90 % of control | dose: 240.0 mg/kg/injection, schedule: Q01DX005 (ip), vehicle: saline with Tween-80 90 % of control

OCCN(CCO)N(CCO)CCO
inactive: [11] 96 % of control | dose: 100.0 mg/kg/injection, schedule: Q01DX005 (ip), vehicle: saline 97 % of control | dose: 200.0 mg/kg/injection, schedule: Q01DX005 (ip), vehicle: saline 97 % of control

CN1C2C=C(c3ccccc3)CC1CC2 (configuration not stated)
inactive: dose: 0.75 mg/kg/injection, schedule: Q01DX005 (ip), vehicle: saline 94 % of control | dose: 1.5 mg/kg/injection, schedule: Q01DX005 (ip), vehicle: saline 108 % of control | dose: 1.56 mg/kg/injection, schedule: Q01DX005 (ip), vehicle: Klucel (hydroxypropylcellulose) (HPC) 105 % of control | dose: 3.0 mg/kg/injection, schedule: Q01DX005 (ip), vehicle: saline 102 % of control | dose: 3.12 mg/kg/injection, schedule: Q01DX005 (ip), vehicle: Klucel (hydroxypropylcellulose) (HPC) 103 % of control

COC(=O)C1=C(C)NC(C)=C(C(=O)OC)C1c1ccc(Cl)c([N+](=O)[O-])c1
inactive: [6] 99 % of control | [7] 96 % of control | [8] 92 % of control

S=C(Nc1ccc(Br)cc1)SCc1ccc(Cl)c(Cl)c1
inactive: dose: 50.0 mg/kg/injection, schedule: Q01DX009 (ip), vehicle: suspension in saline 105 % of control | dose: 100.0 mg/kg/injection, schedule: Q01DX009 (ip), vehicle: suspension in saline 111 % of control | dose: 200.0 mg/kg/injection, schedule: Q01DX009 (ip), vehicle: suspension in saline 110 % of control

N#Cc1c(Cl)cccc1N1CCSCC1
inactive: dose: 60.0 mg/kg/injection, schedule: Q01DX005 (ip), vehicle: Klucel (hydroxypropylcellulose) (HPC) 94 % of control | dose: 120.0 mg/kg/injection, schedule: Q01DX005 (ip), vehicle: Klucel (hydroxypropylcellulose) (HPC) 102 % of control | dose: 240.0 mg/kg/injection, schedule: Q01DX005 (ip), vehicle: Klucel (hydroxypropylcellulose) (HPC) 100 % of control

Cn1c(=O)c2c(-c3ccccc3)cc(-c3ccccc3)nc2n(C)c1=O
inactive: dose: 100.0 mg/kg/injection, schedule: Q04DX002 (ip), vehicle: saline with Tween-80 97 % of control | dose: 200.0 mg/kg/injection, schedule: Q04DX002 (ip), vehicle: saline with Tween-80 100 % of control | dose: 400.0 mg/kg/injection, schedule: Q04DX002 (ip), vehicle: saline with Tween-80 101 % of control

c1cc2ccc3ccc[n+]4c3c2[n+](c1)CC4
inactive: [9] 103 % of control

CCCCCCCCN1C(=O)c2ccccc2C1=O
inactive: [12] 109 % of control | [13] 103 % of control | [14] 109 % of control | [15] 98 % of control

CCCC(=O)CC(=O)Nc1ccccc1
inactive: dose: 100.0 mg/kg/injection, schedule: Q01DX001 (ip), vehicle: saline 109 % of control | dose: 200.0 mg/kg/injection, schedule: Q01DX001 (ip), vehicle: saline 118 % of control | dose: 400.0 mg/kg/injection, schedule: Q01DX001 (ip), vehicle: saline 118 % of control

COc1nc(N)c(NC(C)=O)c(=O)n1C
inactive: dose: 60.0 mg/kg/injection, schedule: Q01DX005 (ip), vehicle: saline 96 % of control | dose: 120.0 mg/kg/injection, schedule: Q01DX005 (ip), vehicle: saline 96 % of control | dose: 240.0 mg/kg/injection, schedule: Q01DX005 (ip), vehicle: saline 93 % of control

O=[N+]([O-])c1ccc(N=Nc2ccccc2)cc1
inactive: dose: 100.0 mg/kg/injection, schedule: Q04DX003 (ip), vehicle: saline with Tween-80 109 % of control | dose: 200.0 mg/kg/injection, schedule: Q04DX003 (ip), vehicle: saline with Tween-80 100 % of control | dose: 400.0 mg/kg/injection, schedule: Q04DX003 (ip), vehicle: saline with Tween-80 100 % of control

Cc1nn(-c2ccccc2)c2c1S(=O)(=O)c1ccccc1-2
inactive: [6] 91 % of control | [7] 89 % of control | [8] 88 % of control

C=C1CC/C=C(\C)CCC2C1CC2(C)C (configuration not stated)
inactive: [1] 100 % of control | [2] 100 % of control | [3] 102 % of control | [4] 105 % of control | [5] 113 % of control

c1ccc(C2c3ccccc3Nc3ccccc32)cc1
inactive: dose: 6.25 mg/kg/injection, schedule: Q04DX002 (ip), vehicle: saline with Tween-80 104 % of control | dose: 12.5 mg/kg/injection, schedule: Q04DX002 (ip), vehicle: saline with Tween-80 97 % of control | dose: 25.0 mg/kg/injection, schedule: Q04DX002 (ip), vehicle: saline with Tween-80 97 % of control

CCOC(=O)C1=C(C)NC(C)=C(C(=O)OCC)C1c1ccncc1
inactive: [12] 103 % of control | [13] 89 % of control | [14] 96 % of control | [15] 97 % of control | dose: 400.0 mg/kg/injection, schedule: Q01DX009 (ip), vehicle: other 95 % of control

Cc1cc(O)c2c(O)c(-c3ccc4cc(C)cc(O)c4c3O)ccc2c1
inactive: [9] 104 % of control | [10] 112 % of control

O=C(NS(=O)C1C=CCCC1)OC1CCCCC1c1ccccc1 (configuration not stated)
inactive: [6] 99 % of control | [7] 100 % of control | [8] 105 % of control

CN(C)c1ccc(C=Nc2ccc3c4c(cccc24)-c2ccccc2-3)cc1
inactive: dose: 50.0 mg/kg/injection, schedule: Q01DX009 (ip), vehicle: saline with Tween-80 93 % of control | dose: 100.0 mg/kg/injection, schedule: Q01DX009 (ip), vehicle: saline with Tween-80 86 % of control | dose: 200.0 mg/kg/injection, schedule: Q01DX009 (ip), vehicle: saline with Tween-80 89 % of control

O=C1/C(=C/c2ccc3c(c2)OCO3)C2CCC(N2)/C1=C\c1ccc2c(c1)OCO2
inactive: dose: 50.0 mg/kg/injection, schedule: Q01DX001 (ip), vehicle: Klucel (hydroxypropylcellulose) (HPC) 103 % of control | dose: 100.0 mg/kg/injection, schedule: Q01DX001 (ip), vehicle: Klucel (hydroxypropylcellulose) (HPC) 96 % of control | dose: 200.0 mg/kg/injection, schedule: Q01DX001 (ip), vehicle: Klucel (hydroxypropylcellulose) (HPC) 96 % of control

CCC(=O)c1cc2ccccc2c2ccccc12
inactive: dose: 12.5 mg/kg/injection, schedule: Q01DX005 (ip), vehicle: saline 96 % of control | dose: 25.0 mg/kg/injection, schedule: Q01DX005 (ip), vehicle: saline 100 % of control | [6] 103 % of control | [11] 100 % of control

COCC(=O)c1ccc(C#N)cc1
inactive: dose: 100.0 mg/kg/injection, schedule: Q04DX003 (ip), vehicle: saline 100 % of control | dose: 200.0 mg/kg/injection, schedule: Q04DX003 (ip), vehicle: saline 100 % of control | dose: 400.0 mg/kg/injection, schedule: Q04DX003 (ip), vehicle: saline 100 % of control

Oc1cccc(/C=N/N=C/c2cccc(O)c2O)c1O
inactive: [3] 96 % of control | [4] 93 % of control
